According to patent US10179771B2 (GALAPAGOS NV, priority 2014, dated 2019):

Target: T1, Recombinant human JAK1 catalytic domain (Homo sapiens, UniProt P23458)
T1 construct: Recombinant human JAK1 (catalytic domain, amino acids 866-1154; catalog number PV4774); purchased Invitrogen PV4774
Test: JAK1 inhibition assay (polyGT substrate / Ulight-JAK1 peptide assay)
Format: biochemical
Conditions: Illustrative Compounds of the invention (Table V)

T1 sequence (P23458 866-1154): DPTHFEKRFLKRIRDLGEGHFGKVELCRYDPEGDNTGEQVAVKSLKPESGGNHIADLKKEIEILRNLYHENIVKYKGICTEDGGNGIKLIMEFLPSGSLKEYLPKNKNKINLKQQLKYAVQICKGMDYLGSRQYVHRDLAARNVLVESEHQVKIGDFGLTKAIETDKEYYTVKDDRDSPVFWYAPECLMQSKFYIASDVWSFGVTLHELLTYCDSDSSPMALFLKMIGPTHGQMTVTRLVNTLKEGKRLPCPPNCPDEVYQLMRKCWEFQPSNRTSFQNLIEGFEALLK

Row | IC50 [nM] | SMILES
1 | 0.1 to 50 | CCc1cc(C#N)cc(F)c1N(C)c1cc(NC(=O)[C@@H]2C[C@@H]2F)c2ncn(C)c2c1 (racemic) [Cpd 7, N-(6-((4-cyano-2-ethyl-6-fluorophenyl)(methyl)amino)-1-methyl-1H-benzo[d]imidazol-4-yl)-2-fluorocyclopropanecarboxamide (1S,2S)/(1R,2R) racemic mixture]
2 | 0.1 to 50 | CN(c1cc(NC(=O)[C@H]2C[C@H]2F)c2ncn(C)c2c1)c1ccc(C#N)cc1F [Cpd 15, (1R,2R)-N-[6-(4-cyano-2-fluoro-N-methyl-anilino)-1-methyl-benzimidazol-4-yl]-2-fluoro-cyclopropanecarboxamide]
3 | > 500 | Cc1cc(C#N)ncc1Oc1cc(N(C)C)c2ncn(C)c2c1 [Cpd 35, 5-[7-(dimethylamino)-3-methyl-benzimidazol-5-yl]oxy-4-methyl-pyridine-2-carbonitrile]
4 | 0.1 to 50 | Cc1cc(C#N)ncc1Oc1cc(NC(=O)C2CC2)c2ncn(C)c2c1 [Cpd 23, N-[6-[(6-cyano-4-methyl-3-pyridyl)oxy]-1-methyl-benzimidazol-4-yl]cyclopropanecarboxamide]
5 | 50 to 100 | CN(c1cc(NC(=O)[C@H]2C[C@H]2F)c2ncn(C)c2c1)c1ccc(F)nc1F [Cpd 13, (1R,2R)-N-[6-[(2,6-difluoro-3-pyridyl)-methyl-amino]-1-methyl-benzimidazol-4-yl]-2-fluoro-cyclopropanecarboxamide]
6 | 0.1 to 50 | Cc1cnc(C#N)c(F)c1N(C)c1cc(NC(=O)[C@H]2C[C@H]2F)c2ncn(C)c2c1 [Cpd 22, (1R,2R)-N-[6-[(2-cyano-3-fluoro-5-methyl-4-pyridyl)-methyl-amino]-1-methyl-benzimidazol-4-yl]-2-fluoro-cyclopropanecarboxamide]
7 | 0.1 to 50 | Cc1cc(S(C)(=O)=O)cc(F)c1N(C)c1cc(NC(=O)C2CC2)c2ncn(C)c2c1 [Cpd 19, N-[6-(2-fluoro-N,6-dimethyl-4-methylsulfonyl-anilino)-1-methyl-benzimidazol-4-yl]cyclopropanecarboxamide]
8 | 0.1 to 50 | CCc1cc(C#N)ncc1N(C)c1cc(NC(=O)C2CC2)c2ncn(C)c2c1 [Cpd 1, N-(6-((6-cyano-4-ethylpyridin-3-yl)(methyl)amino)-1-methyl-1H-benzo[d]imidazol-4-yl)cyclopropanecarboxamide]
